Results as given in patent US5189016A, “Nutrient compositions containing peptides and method for administering the same” (Clintec Nutrition Co., priority 1990, dated 1993).
Like-named read-outs stand apart in the source and are kept apart here. One block for each molecule: values may come before it. Peptide text beside a SMILES is read from it.

Assays:
[1] = cited from earlier work
[2] = parameters: species or system piglets; settings: in vivo
Excerpt: In this experiment slightly preterm, colostrum-deprived piglets were maintained on total parenteral nutrition from birth to day 7 of life. All piglets in this study have been enrolled and completed the study period in the University of Florida Piglet Neonatal Intensive Care Unit. Ten piglets in the control group received standard neonatal piglet total parenteral nutrition solution containing amino acids, glucose, lipid, vitamins and minerals. Eleven piglets in the experimental group received the same total […] nutrition formulation with the exception that 20% of the amino acids in the standard solution was replaced with glutamine. […] Nine piglets in each group completed the full 7 days of the study. One piglet in the control group and two piglets in the experimental group became septic. […] To date, the amino acid analyses have been completed on blood samples from six of the piglets in the experimental group and on blood samples from seven of the piglets in the control group.

Compound: NC(=O)CC[C@H](N)C(=O)O [Glutamine, glutamine]
Solubility in water ([1]; 30° C.): 4.8 grams/100 mL

Compound: NC(=O)C[C@H](N)C(=O)O [asparagine]
Solubility in water ([1]; 28° C.): 3.5 grams/100 mL

Plasma glutamine concentration, mean [2]: 544 nmol/mL
Compound: NCC(=O)N[C@@H](CCC(N)=O)C(=O)O [glycylglutamine dipeptide, glycyl-glutamine] (H-Gly-Gln-OH)
Adverse effect in septic piglets [2]: signs of severe convulsions
Plasma glutamine concentrations compared to control group [2]: increases the plasma glutamine concentrations

Compound: N[C@@H](Cc1c[nH]c2ccccc12)C(=O)O [tryptophan]
Solubility in water ([1]; 25° C.): 11.4 grams/100 mL
